In brackets after ≈: the same amount, converted by molar mass. Entries after “also recorded” stand apart in the source; their conditions may differ. Read-outs that look alike come from different tables or passages of the source.
Columns and labels:
Assay type in all cases: cell-based
[1] = tested on: 18 yeastlike and 3 Filamentus fungii; assay: Agar dilution assay, whole panel; settings: for MIC: 48 h
From the text: (§1) For the agar dilution assay, the test panel consisted of 18 yeastlike and 3 Filamentus fungii. Four media were used. These were yeast nitrogen base dextrose (0.5% agar) (YNBDA); pH 5.5; YNBDA with pH adjusted to pH 7.5; and micrological agar (MA), pH 7.0; and Sabouraud dextrose agar, pH 5.7. The media was manufactured by Difco (Detroit, MI) and prepared according to the manufacturer's instructions.
(§2) The test compounds were solubilized in 10% aqueous DMSO; the control drug, Nystatin, was solublized in 10% aqueous DMF. The drugs were serially diluted twofold in sterile water to yield concentrations of 1.28 mg/ml to […]. One ml of diluted drug was added to 9 ml of cooled (50° C.) molten agar in plastic petri plates to yield final drug concentrations in the agar ranging from 128 to 0.063 ug/ml. Appropriate solvent and media control plates were prepared as well, and all plates stored in the dark at 4° C. overnight. The yeast cultures, maintained in yeast maltose (YM; Difco), were transferred to fresh YM medium and incubating overnight at 37° C. with shaking at 250 rpm. After incubation each culture was diluted in sterile saline to yield concentrations of 3×10^5 to 3×10^6 cfu/ml. Isolates of aspergillis and penicillium were made on potato dextrose agar slants, and spore suspensions were made following vigorous shaking with sterile glass beads. The spore preparation were used as inocula for these fungi.
(§3) Each prepared place was inoculated with the 21-member panel using a Denleigh multipoint inoculator (Sussex, England). The inoculator delivers approximately 1 ul to the agar surface, resulting in inoculation of from 3×10^2 to 3×10^3 cfu. The plates were incubated at 28° C. for 48 h, and the minimum inhibitory concentrations (MIC) of each drug were recorded as the lower concentration of the drug permitting no growth or growth of less than 3 cfu/spot.

[2] = tested on: Sac. cerevisiae MY1027; assay: Agar dilution assay; settings: Saccharomyces cerevisiae, MY1027, 48 h, read-out: Minimum inhibitory concentration
From the text: as §1, §2, §3

[3] = tested on: Ca. albicans MY1055; assay: Agar dilution assay; settings: Candida albicans, MY1055, 48 h, read-out: Minimum inhibitory concentration
From the text: as §1, §2, §3

[4] = tested on: Cryptococcus neoformans MY1051; assay: Agar dilution assay; settings: MY1051, 48 h
From the text: as §1, §2, §3

[5] = tested on: Ca. stellatoidea MY1017; assay: Agar dilution assay; settings: Candida albicans, MY1017, 48 h, read-out: Minimum inhibitory concentration
From the text: as §1, §2, §3

[6] = tested on: Torulopsis glabrata MY1059; assay: Agar dilution assay; settings: Nakaseomyces glabratus, MY1059, 48 h, read-out: Minimum inhibitory concentration
From the text: as §1, §2, §3

[7] = tested on: Ca. tropicalis MY1012 (Nystatin resistant isolate); assay: Agar dilution assay; settings: Candida tropicalis, 48 h
From the text: as §1, §2, §3

[8] = tested on: Candida albicans MY1058; assay: Agar dilution assay; settings: MY1058, 48 h
From the text: as §1, §2, §3

[9] = tested on: Ca. rugosa MY1022; assay: Agar dilution assay; settings: Diutina rugosa, MY1022, 48 h, read-out: Minimum inhibitory concentration
From the text: as §1, §2, §3

[10] = tested on: Ca. tropicalis MY1011; assay: Agar dilution assay; settings: Candida tropicalis, MY1011, 48 h, read-out: Minimum inhibitory concentration
From the text: as §1, §2, §3

[11] = tested on: A. flavus MF0383; assay: Agar dilution assay; settings: Aspergillus flavus, MF0383, 48 h, read-out: Minimum inhibitory concentration
From the text: as §1, §2, §3

[12] = tested on: Ca. guilliermondii MY1019; assay: Agar dilution assay; settings: Meyerozyma guilliermondii, MY1019, 48 h, read-out: Minimum inhibitory concentration
From the text: as §1, §2, §3

[13] = tested on: Ca. parapsilosis MY1010; assay: Agar dilution assay; settings: Lodderomyces parapsilosis, MY1010, 48 h, read-out: Minimum inhibitory concentration
From the text: as §1, §2, §3

[14] = tested on: Ca. pseudotropicalis MY1040; assay: Agar dilution assay; settings: Kluyveromyces marxianus, MY1040, 48 h, read-out: Minimum inhibitory concentration
From the text: as §1, §2, §3

[15] = tested on: Penicillium italicum MF2819; assay: Agar dilution assay; settings: MF2819, 48 h
From the text: as §1, §2, §3

[16] = tested on: Candida; assay: Growth of Candida cultures with compound and/or SMX (FIG. 1)
[17] = MA pH 7.0, read-out: Minimum inhibitory concentration
[18] = SDA pH 5.7, read-out: Minimum inhibitory concentration
[19] = YNBDA pH 5.5, read-out: Minimum inhibitory concentration
[20] = YNBDA pH 7.5, read-out: Minimum inhibitory concentration

CCCCCCCCc1ccc2nc(N)nc(N)c2c1C [2,4-Diamino-5-methyl-6-n-octylquinazoline] was tested, and the MIC ([1]; pH 5.7) was over 128 µg/mL, the MIC ([1]; Candida tropicalis, pH 5.5) was at least 128 µg/mL and the “antifungal activity in words” value ([1]; Table 3 panel) was “inhibitory for a large variety of yeast and Filamentus fungii; also recorded: extremely toxic with regard to a wide variety of fungi”. The MIC ([2]; MA pH 7.0) was 4 µg/mL (≈ 14 µM), the MIC ([2]; SDA pH 5.7) was 128 µg/mL (≈ 447 µM) and the MIC ([2]; YNBDA pH 5.5) was over 128 µg/mL. For the same compound, the MIC ([2]; YNBDA pH 7.5) was 4 µg/mL (≈ 14 µM), the MIC ([3]; MA pH 7.0) was 32 µg/mL (≈ 112 µM) and the MIC ([3]; SDA pH 5.7) was over 128 µg/mL. For the same compound, the MIC ([3]; YNBDA pH 5.5) was over 128 µg/mL, the MIC ([3]; YNBDA pH 7.5) was 32 µg/mL (≈ 112 µM) and the MIC [4, 17] was 4 µg/mL (≈ 14 µM). For the same compound, the MIC [4, 18] was 16 µg/mL (≈ 55.9 µM), the MIC [4, 19] was 128 µg/mL (≈ 447 µM) and the MIC [4, 20] was 8 µg/mL (≈ 27.9 µM). The MIC ([5]; MA pH 7.0) was 16 µg/mL (≈ 55.9 µM), the MIC ([5]; SDA pH 5.7) was 128 µg/mL (≈ 447 µM) and the MIC ([5]; YNBDA pH 5.5) was over 128 µg/mL. The MIC ([5]; YNBDA pH 7.5) was 16 µg/mL (≈ 55.9 µM), the MIC ([6]; MA pH 7.0) was 16 µg/mL (≈ 55.9 µM) and the MIC ([6]; SDA pH 5.7) was over 128 µg/mL. The MIC ([6]; YNBDA pH 5.5) was over 128 µg/mL, the MIC ([6]; YNBDA pH 7.5) was 8 µg/mL (≈ 27.9 µM) and the MIC ([7]; pH 5.5, read-out: Minimum inhibitory concentration) was 4 µg/mL (≈ 14 µM). It also gave an MIC ([7]; pH 5.7, read-out: Minimum inhibitory concentration) of 2 µg/mL (≈ 6.98 µM), an MIC ([7]; pH 7, read-out: Minimum inhibitory concentration) of 2 µg/mL (≈ 6.98 µM) and an MIC ([7]; pH 7.5, read-out: Minimum inhibitory concentration) of 4 µg/mL (≈ 14 µM). It also gave an MIC [8, 17] of 16 µg/mL (≈ 55.9 µM), an MIC [8, 18] of over 128 µg/mL and an MIC [8, 19] of over 128 µg/mL. The MIC [8, 20] was 32 µg/mL (≈ 112 µM), the MIC ([9]; pH 5.5, YNBDA pH 5.5) was over 128 µg/mL and the MIC ([9]; pH 7, MA pH 7.0) was 64 µg/mL (≈ 223 µM). It also gave an MIC ([9]; pH 7.5, YNBDA pH 7.5) of 32 µg/mL (≈ 112 µM), an MIC ([10]; MA pH 7.0) of 16 µg/mL (≈ 55.9 µM) and an MIC ([10]; SDA pH 5.7) of 128 µg/mL (≈ 447 µM). For the same compound, the MIC ([10]; YNBDA pH 5.5) was over 128 µg/mL, the MIC ([10]; YNBDA pH 7.5) was 16 µg/mL (≈ 55.9 µM) and the MIC ([11]; MA pH 7.0) was 64 µg/mL (≈ 223 µM). The MIC ([11]; SDA pH 5.7) was over 128 µg/mL, the MIC ([11]; YNBDA pH 5.5) was over 128 µg/mL and the MIC ([11]; YNBDA pH 7.5) was 16 µg/mL (≈ 55.9 µM). The MIC ([12]; MA pH 7.0) was 16 µg/mL (≈ 55.9 µM), the MIC ([12]; SDA pH 5.7) was over 128 µg/mL and the MIC ([12]; YNBDA pH 5.5) was over 128 µg/mL. It also gave an MIC ([12]; YNBDA pH 7.5) of 16 µg/mL (≈ 55.9 µM), an MIC ([13]; MA pH 7.0) of 4 µg/mL (≈ 14 µM) and an MIC ([13]; SDA pH 5.7) of over 128 µg/mL. It also gave an MIC ([13]; YNBDA pH 5.5) of over 128 µg/mL, an MIC ([13]; YNBDA pH 7.5) of 8 µg/mL (≈ 27.9 µM) and an MIC ([14]; MA pH 7.0) of 4 µg/mL (≈ 14 µM). The MIC ([14]; SDA pH 5.7) was 128 µg/mL (≈ 447 µM), the MIC ([14]; YNBDA pH 5.5) was 128 µg/mL (≈ 447 µM) and the MIC ([14]; YNBDA pH 7.5) was 4 µg/mL (≈ 14 µM). For the same compound, the MIC [15, 17] was 4 µg/mL (≈ 14 µM), the MIC [15, 18] was 64 µg/mL (≈ 223 µM) and the MIC [15, 19] was 128 µg/mL (≈ 447 µM). The MIC [15, 20] was 8 µg/mL (≈ 27.9 µM), the “cfu/ml after 9 h” value ([16]; 10 ug compound + 100 ug SMX, after 9 h) was 10^2 cfu/ml and the “cfu/ml after 36 h” value ([16]; 10 ug compound + 100 ug SMX) was “zero”. For the same compound, the “cfu/ml after 36 h” value ([16]; 10 ug of compound alone) was 10^4 cfu/ml, the “cfus after 9 h” value ([16]; 100 ug of each compound (with SMX), after 9 h) was “no cfus” and the “synergistic activity with sulfa drug” value ([16]; with sulfa drug (SMX in FIG. 1)) was “synergistic activity”.

From US4818753A, “Synthesis and method of use for 2, 4 diaminoquinazoline” (SRI International, priority 1987, dated 1989)
